Results from PubChem BioAssay (NCI).
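Compound exposure: 48 hours, 5 concentrations, 96-well plates. GI50: concentration for 50% inhibition of growth. TGI is the concentration that stops growth completely.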

Assays:
Assay in all cases: DTP human tumour cell line panel, 48 h
OVCAR-5 ovarian = tested on: OVCAR-5 ovarian
SK-MEL-28 melanoma = tested on: SK-MEL-28 melanoma
CAKI-1 renal = tested on: CAKI-1 renal
NCI-H23 lung = tested on: NCI-H23 lung
HT29 colon = tested on: HT29 colon
UACC-62 melanoma = tested on: UACC-62 melanoma
MCF7 breast = tested on: MCF7 breast
MDA-MB-231 breast = tested on: MDA-MB-231 breast
A549 NSCLC = tested on: A549 NSCLC
UACC-257 melanoma = tested on: UACC-257 melanoma

SMILES | GI50 (OVCAR-5 ovarian) [µM] | TGI (OVCAR-5 ovarian) [µM] | GI50 (SK-MEL-28 melanoma) [µM] | TGI (SK-MEL-28 melanoma) [µM] | GI50 (CAKI-1 renal) [µM] | TGI (CAKI-1 renal) [µM] | GI50 (NCI-H23 lung) [µM] | TGI (NCI-H23 lung) [µM] | GI50 (HT29 colon) [µM] | TGI (HT29 colon) [µM] | GI50 (UACC-62 melanoma) [µM] | TGI (UACC-62 melanoma) [µM] | GI50 (MCF7 breast) [µM] | TGI (MCF7 breast) [µM] | GI50 (MDA-MB-231 breast) [µM] | TGI (MDA-MB-231 breast) [µM] | GI50 (A549 NSCLC) [µM] | TGI (A549 NSCLC) [µM] | GI50 (UACC-257 melanoma) [µM] | TGI (UACC-257 melanoma) [µM]
O=C(N[C@@H](Cc1coc2ccccc12)B(O)O)[C@@H]1C[C@H]2CC[C@@H]1O2 | 6.8 | > 100 | 4.5 | > 100 | 4.47 | > 100 | 9.18 | > 100 | 3.77 | > 100 | 5.29 | 55.2 | 3.25 | > 100 | 11.7 | > 100 | 7.58 | > 100 | 6.28 | > 100
COc1ccc2c(c1)c(-c1nc(-c3c[nH]c4ncccc34)cs1)cn2CCCCN1CCCCC1 |  |  |  |  |  |  |  |  |  |  |  |  |  |  | 1.61 | 3.08 |  |  | 1.8 | 3.35
CNC(C)C(O)c1ccc2oc3cc(=O)c4ccccc4c-3nc2c1 (configuration not stated) |  | > 100 |  | 27.6 |  | 29.6 |  | > 100 |  | > 100 |  | 14.3 |  | 41.7 |  | > 100 |  | > 100 |  | 33.4
Nc1nc(SCc2ccccc2Cl)c2[nH]cnc2n1 |  | > 100 |  | > 100 |  |  |  | > 100 |  |  |  | > 100 |  |  |  |  |  | > 100 |  | > 100
C=CCCC1(C)CCCNC1=S (configuration not stated) |  | > 100 |  | > 100 |  |  |  | > 100 |  | > 100 |  | > 100 |  |  |  |  |  | > 100 |  | > 100
CCOC(=O)c1sc2nc(SC)nc(Nc3ccc4c(c3)OCCO4)c2c1N |  | 54.7 |  | > 100 |  | 49.2 |  | 36.5 |  | 53.3 |  | 23.5 |  | 23.6 |  | 25.9 |  | > 100 |  | > 100
CCCO[C@@H]1[C@@H](OC(C)=O)[C@@H](OC(C)=O)C(C)(C)/C=C/[C@H](C)C(=O)[C@@]2(OC(C)=O)C[C@@](C)(OC(C)=O)[C@H](OC(C)=O)[C@@H]2[C@H]2OC(=O)CC[C@@]12OC(=O)c1ccccc1 |  | > 25 |  |  |  | > 25 |  | > 25 |  | > 25 |  | > 25 |  | > 25 |  | > 25 |  |  |  | > 25
O=C1c2ccccc2OCC12OC21C=CC(Cl)=CC1 (configuration not stated) |  | 81.3 |  | 67.4 |  |  |  | 37.9 |  | 36.5 |  | > 100 |  | > 100 |  | 50.9 |  | 56.6 |  | > 100
CCC(=O)OCN(C)c1nc(N(C)COC(=O)CC)nc(N(C)COC(=O)CC)n1 |  | > 100 |  | > 100 |  | > 100 |  | > 100 |  | 98.3 |  | 35.8 |  | > 100 |  | > 100 |  |  |  | > 100
Cc1nc2ccc(S(=O)(=O)Nc3nccs3)cc2c(=O)n1NS(=O)(=O)c1nccs1 |  | > 100 |  | > 100 |  | > 100 |  | > 100 |  | > 100 |  | > 100 |  | > 100 |  | > 100 |  |  |  | > 100
CCCCC1C=Cn2c(=O)oc3c(OC(C)C)c(C)c(O)c1c32 (configuration not stated) |  | 15.1 |  | 8.33 |  | 2.34 |  | 4.71 |  | 11.7 |  | 2.97 |  | 1.81 |  | 4.87 |  | 6.97 |  | 8.78
